Measurements published in patent publication US20050153304A1, “Multivariate profiling of complex biological regulatory pathways” (Government of the USA, as represented by the secretary, …, priority 2003, published 2005).

Key:
[1] = tested on: Jurkat T-cells, 8 promoter elements; test: Principal component analysis of vector differences between mitogen profiles in the absence and presence of drug (8 promoter elements); type: cell-based, human; conditions: subtraction vectors versus control mitogen profiles, FIG. 5
Procedure: The mitogen activation profiles under control conditions shown in red FIG. 4 were used to calculate subtraction vectors for each profile in the presence of a drug treatment. These vectors were then analyzed by PCA to show similarities and differences in targeting.
(§1) A human acute lymphoblastic T-cell leukemia cell line (Jurkat) was individually electroporated with 5 ug of a luciferase reporter plasmids driven by the interleukin 2 (IL-2) promoter, the NFAT element of the IL-2 promoter, the CD28RE-AP1 element of the IL-2 promoter, a consensus AP-1 element, a consensus NF-kappa B element, a consensus CRE element and the co-transfection of a Gal4 binding site or upstream activation sequence (UAS) driving a luciferase reporter in combination with either a full length Gal4-p300 fusion (FL) or a N-terminal domain fusion of p300 (amino acids 1-743). Electroporation was performed in a 96 well format with a BTX 96-well gold electrode. Cells were electroporated at 10 millions cells per well with each experiment repeated in triplicates. Following electroporation cells were stimulated with various combination of T-cell mitogens (see Table 1). Cells were harvested 5 hours after stimulation and assayed for luciferase activity by a 96 well luminometer. […]

NF-kappa B pathway = test: Luciferase reporter transfection in mitogen-stimulated Jurkat T-cells, principal component analysis of mitogen profiles; type: cell-based, human; conditions: co-stimulation with anti-CD28, FIG. 4 and FIG. 6
Procedure: as §1, with “luminometer. Data were normalized first for fold activation for each experiment and then inputted into an activation matrix where the data were normalized to percent maximum stimulation.” for “luminometer.”

IGF-1: insulin-like growth factor one, a peptide growth factor
drug targeting profile (similarity of pathways targeted) [1]: appear to target the same pathway
effect on NF-kappa B pathway in activated T-cells (NF-kappa B pathway): synergies with anti-CD28 stimulation in activated T-cells to upregulate the NF-kappa B pathway
